{
  "source": "paper PMC10819888",
  "about": "“Benzimidazole-Based Derivatives as Apoptotic Antiproliferative Agents: Design, Synthesis, Docking, and Mechanistic Studies” (Molecules, 2024)",
  "type_in_all_cases": "cell-based, human",
  "key": {"HCT-116": {"tested_on": "HCT-116", "assay": "NCI-60 five-dose assay", "settings": "HCT-116 (Colon Cancer), 48 h"}, "IGROV1": {"tested_on": "IGROV1", "assay": "NCI-60 five-dose assay", "settings": "IGROV1 (Ovarian Cancer), 48 h"}, "MCF7": {"tested_on": "MCF7", "assay": "NCI-60 five-dose assay", "settings": "MCF7 (Breast Cancer), 48 h"}, "SN12C": {"tested_on": "SN12C", "assay": "NCI-60 five-dose assay", "settings": "SN12C (Renal Cancer), 48 h"}, "Breast Cancer subpanel": {"tested_on": "Breast Cancer subpanel", "assay": "NCI-60 five-dose assay, subpanel"}, "[1]": {"tested_on": "Non-Small Cell Lung Cancer subpanel", "assay": "NCI-60 five-dose assay, subpanel"}, "UACC-257": {"tested_on": "UACC-257", "assay": "NCI-60 five-dose assay", "settings": "UACC-257 (Melanoma), 48 h"}, "PC-3": {"tested_on": "PC-3", "assay": "NCI-60 five-dose assay", "settings": "PC-3 (Prostate Cancer), 48 h"}, "U251": {"tested_on": "U251", "assay": "NCI-60 five-dose assay", "settings": "U251 (CNS Cancer), 48 h"}, "SK-MEL-28": {"tested_on": "SK-MEL-28", "assay": "NCI-60 five-dose assay", "settings": "SK-MEL-28 (Melanoma), 48 h"}, "SF-539": {"tested_on": "SF-539", "assay": "NCI-60 five-dose assay", "settings": "SF-539 (CNS Cancer), 48 h"}, "OVCAR-3": {"tested_on": "OVCAR-3", "assay": "NCI-60 five-dose assay", "settings": "OVCAR-3 (Ovarian Cancer), 48 h"}, "BT-549": {"tested_on": "BT-549", "assay": "NCI-60 five-dose assay", "settings": "BT-549 (Breast Cancer), 48 h"}, "SK-MEL-5": {"tested_on": "SK-MEL-5", "assay": "NCI-60 five-dose assay", "settings": "SK-MEL-5 (Melanoma), 48 h"}, "HL-60(TB)": {"tested_on": "HL-60(TB)", "assay": "NCI-60 five-dose assay", "settings": "HL-60(TB) (Leukemia), 48 h"}, "UACC-62": {"tested_on": "UACC-62", "assay": "NCI-60 five-dose assay", "settings": "UACC-62 (Melanoma), 48 h"}, "LOX IMVI": {"tested_on": "LOX IMVI", "assay": "NCI-60 five-dose assay", "settings": "LOX IMVI (Melanoma), 48 h"}, "MDA-MB-468": {"tested_on": "MDA-MB-468", "assay": "NCI-60 five-dose assay", "settings": "MDA-MB-468 (Breast Cancer), 48 h"}, "SNB-19": {"tested_on": "SNB-19", "assay": "NCI-60 five-dose assay", "settings": "SNB-19 (CNS Cancer), 48 h"}, "Prostate Cancer subpanel": {"tested_on": "Prostate Cancer subpanel", "assay": "NCI-60 five-dose assay, subpanel"}, "RXF 393": {"tested_on": "RXF 393", "assay": "NCI-60 five-dose assay", "settings": "RXF 393 (Renal Cancer), 48 h"}, "786-0": {"tested_on": "786-0", "assay": "NCI-60 five-dose assay", "settings": "786-0 (Renal Cancer), 48 h"}, "ACHN": {"tested_on": "ACHN", "assay": "NCI-60 five-dose assay", "settings": "ACHN (Renal Cancer), 48 h"}, "HOP-62": {"tested_on": "HOP-62", "assay": "NCI-60 five-dose assay", "settings": "HOP-62 (Non-Small Cell Lung Cancer), 48 h"}, "Colon Cancer subpanel": {"tested_on": "Colon Cancer subpanel", "assay": "NCI-60 five-dose assay, subpanel"}, "[2]": {"settings": "Homo sapiens, read-out: GI50 Conc. per Cell Line"}, "[3]": {"settings": "Homo sapiens, read-out: LC50 (the source's name)"}},
  "data": [
    {"smiles": "O=C(NN=Cc1ccc([N+](=O)[O-])cc1)c1ccc2[nH]c(-c3ccc(Cl)cc3)nc2c1", "note": "[Compound 4c, N′-(4-Nitrobenzylidene)-2-(4-chlorophenyl)-1H-benzimidazole-5-carbohydrazide]", "values": [
      {"measurement": "TGI", "setting": "HCT-116", "result": 6.90, "unit": "µM"},
      {"measurement": "GI50", "setting": "HCT-116; [2]", "result": 2.25, "unit": "µM"},
      {"measurement": "CC50", "setting": "HCT-116; [3]", "result": 82.3, "unit": "µM"},
      {"measurement": "GI50", "setting": "IGROV1; Homo sapiens, IGROV-1, read-out: GI50 Conc. per Cell Line", "result": 3.04, "unit": "µM"},
      {"measurement": "CC50", "setting": "IGROV1; Homo sapiens, IGROV-1, read-out: LC50 (the source's name)", "result": 52.4, "unit": "µM"},
      {"measurement": "TGI", "setting": "IGROV1", "result": 11.40, "unit": "µM"},
      {"measurement": "GI50", "setting": "MCF7; [2]", "result": 0.582, "unit": "µM"},
      {"measurement": "CC50", "setting": "MCF7; [3]", "result": 13.3, "unit": "µM"},
      {"measurement": "TGI", "setting": "MCF7", "result": 2.85, "unit": "µM"},
      {"measurement": "GI50", "setting": "SN12C; [2]", "result": 3.14, "unit": "µM"},
      {"measurement": "CC50", "setting": "SN12C; [3]", "result": "> 100", "unit": "µM"},
      {"measurement": "TGI", "setting": "SN12C", "result": 18.10, "unit": "µM"},
      {"measurement": "GI50 Selectivity Ratio (MID a/MID b)", "setting": "Breast Cancer subpanel; Breast Cancer subpanel", "result": 1.31},
      {"measurement": "GI50", "setting": "Breast Cancer subpanel; Homo sapiens, Breast Cancer, average sensitivity of all subpanel cell lines, read-out: GI50 Subpanel MID b", "result": 2.5, "unit": "µM"},
      {"measurement": "GI50", "setting": "[1]; Homo sapiens, Non-Small Cell Lung Cancer, average sensitivity of all subpanel cell lines, read-out: GI50 Subpanel MID b", "result": 3.52, "unit": "µM"},
      {"measurement": "GI50 Selectivity Ratio (MID a/MID b)", "setting": "[1]; Non-Small Cell Lung Cancer subpanel", "result": 0.93},
      {"measurement": "GI50", "setting": "UACC-257; [2]", "result": 3.37, "unit": "µM"},
      {"measurement": "CC50", "setting": "UACC-257; [3]", "result": "> 100", "unit": "µM"},
      {"measurement": "TGI", "setting": "UACC-257", "result": 15.40, "unit": "µM"},
      {"measurement": "GI50", "setting": "PC-3; [2]", "result": 0.42, "unit": "µM"},
      {"measurement": "TGI", "setting": "PC-3", "result": 15.30, "unit": "µM"},
      {"measurement": "GI50", "setting": "U251; Homo sapiens, U-251, read-out: GI50 Conc. per Cell Line", "result": 2.92, "unit": "µM"},
      {"measurement": "CC50", "setting": "U251; Homo sapiens, U-251, read-out: LC50 (the source's name)", "result": 48, "unit": "µM"},
      {"measurement": "TGI", "setting": "U251", "result": 10.80, "unit": "µM"},
      {"measurement": "GI50", "setting": "SK-MEL-28; [2]", "result": 2.6, "unit": "µM"},
      {"measurement": "CC50", "setting": "SK-MEL-28; [3]", "result": 39, "unit": "µM"},
      {"measurement": "TGI", "setting": "SK-MEL-28", "result": 10.30, "unit": "µM"},
      {"measurement": "GI50", "setting": "SF-539; [2]", "result": 2.73, "unit": "µM"},
      {"measurement": "CC50", "setting": "SF-539; [3]", "result": 33.8, "unit": "µM"},
      {"measurement": "TGI", "setting": "SF-539", "result": 10.10, "unit": "µM"},
      {"measurement": "GI50", "setting": "OVCAR-3; [2]", "result": 3.25, "unit": "µM"},
      {"measurement": "CC50", "setting": "OVCAR-3; [3]", "result": 40.9, "unit": "µM"},
      {"measurement": "TGI", "setting": "OVCAR-3", "result": 8.23, "unit": "µM"},
      {"measurement": "TGI", "setting": "BT-549", "result": 9.70, "unit": "µM"},
      {"measurement": "GI50", "setting": "BT-549; [2]", "result": 2.84, "unit": "µM"},
      {"measurement": "CC50", "setting": "BT-549; [3]", "result": 50.5, "unit": "µM"},
      {"measurement": "GI50", "setting": "SK-MEL-5; [2]", "result": 2.11, "unit": "µM"},
      {"measurement": "CC50", "setting": "SK-MEL-5; [3]", "result": 12.8, "unit": "µM"},
      {"measurement": "TGI", "setting": "SK-MEL-5", "result": 4.78, "unit": "µM"},
      {"measurement": "TGI", "setting": "HL-60(TB)", "result": 5.73, "unit": "µM"},
      {"measurement": "GI50", "setting": "HL-60(TB); [2]", "result": 0.797, "unit": "µM"},
      {"measurement": "CC50", "setting": "HL-60(TB); [3]", "result": "> 100", "unit": "µM"},
      {"measurement": "GI50", "setting": "UACC-62; [2]", "result": 3.51, "unit": "µM"},
      {"measurement": "CC50", "setting": "UACC-62; [3]", "result": 52.2, "unit": "µM"},
      {"measurement": "TGI", "setting": "UACC-62", "result": 14.90, "unit": "µM"},
      {"measurement": "GI50", "setting": "LOX IMVI; [2]", "result": 1.34, "unit": "µM"},
      {"measurement": "CC50", "setting": "LOX IMVI; [3]", "result": 7.74, "unit": "µM"},
      {"measurement": "TGI", "setting": "LOX IMVI", "result": 3.22, "unit": "µM"},
      {"measurement": "GI50", "setting": "MDA-MB-468; [2]", "result": 1.97, "unit": "µM"},
      {"measurement": "TGI", "setting": "MDA-MB-468", "result": 4.79, "unit": "µM"},
      {"measurement": "GI50", "setting": "SNB-19; [2]", "result": 7.48, "unit": "µM"},
      {"measurement": "CC50", "setting": "SNB-19; [3]", "result": "> 100", "unit": "µM"},
      {"measurement": "TGI", "setting": "SNB-19", "result": 32.40, "unit": "µM"},
      {"measurement": "GI50", "setting": "Prostate Cancer subpanel; Homo sapiens, Prostate Cancer, average sensitivity of all subpanel cell lines, read-out: GI50 Subpanel MID b", "result": 2.2, "unit": "µM"},
      {"measurement": "GI50 Selectivity Ratio (MID a/MID b)", "setting": "Prostate Cancer subpanel; Prostate Cancer subpanel", "result": 1.49},
      {"measurement": "GI50", "setting": "RXF 393; [2]", "result": 2.03, "unit": "µM"},
      {"measurement": "CC50", "setting": "RXF 393; [3]", "result": 34, "unit": "µM"},
      {"measurement": "TGI", "setting": "RXF 393", "result": 7.07, "unit": "µM"},
      {"measurement": "TGI", "setting": "786-0", "result": 15.70, "unit": "µM"},
      {"measurement": "GI50", "setting": "786-0; [2]", "result": 3.92, "unit": "µM"},
      {"measurement": "CC50", "setting": "786-0; [3]", "result": 58.2, "unit": "µM"},
      {"measurement": "TGI", "setting": "ACHN", "result": 31.90, "unit": "µM"},
      {"measurement": "GI50", "setting": "ACHN; [2]", "result": 4.36, "unit": "µM"},
      {"measurement": "CC50", "setting": "ACHN; [3]", "result": "> 100", "unit": "µM"},
      {"measurement": "TGI", "setting": "HOP-62", "result": 30.80, "unit": "µM"},
      {"measurement": "GI50", "setting": "HOP-62; [2]", "result": 6.42, "unit": "µM"},
      {"measurement": "CC50", "setting": "HOP-62; [3]", "result": "> 100", "unit": "µM"},
      {"measurement": "GI50 Selectivity Ratio (MID a/MID b)", "setting": "Colon Cancer subpanel; Colon Cancer subpanel", "result": 1.30},
      {"measurement": "GI50", "setting": "Colon Cancer subpanel; Homo sapiens, Colon Cancer, average sensitivity of all subpanel cell lines, read-out: GI50 Subpanel MID b", "result": 2.53, "unit": "µM"}
    ]}
  ]
}
